We go through two molecules from ChEMBL document CHEMBL4507299, “Data for DCP probe PF-04554878” (2021).

Test [1] deals with T1, Serine/threonine-protein kinase Chk1 (Homo sapiens) (UniProt O14757).
T1 sequence (whole entry): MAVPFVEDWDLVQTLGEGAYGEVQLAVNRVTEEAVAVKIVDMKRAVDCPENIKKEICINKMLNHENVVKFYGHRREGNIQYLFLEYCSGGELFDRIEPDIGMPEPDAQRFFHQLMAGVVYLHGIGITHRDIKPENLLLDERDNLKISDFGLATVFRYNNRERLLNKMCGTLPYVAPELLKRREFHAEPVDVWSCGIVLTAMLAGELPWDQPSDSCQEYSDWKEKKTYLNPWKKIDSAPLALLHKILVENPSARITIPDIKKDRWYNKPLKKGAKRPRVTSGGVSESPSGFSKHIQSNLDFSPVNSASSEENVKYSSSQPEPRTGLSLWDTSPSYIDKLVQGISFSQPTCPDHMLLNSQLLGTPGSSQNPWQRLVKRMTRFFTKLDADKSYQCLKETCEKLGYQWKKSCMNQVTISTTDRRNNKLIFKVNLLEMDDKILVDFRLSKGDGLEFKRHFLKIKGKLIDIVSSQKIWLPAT
Description: CHK1 Invitrogen kinase activity assay. Conditions: Compound concentration 1.0 uM; call rule not given here.

The target in test [2] is MAP kinase-activated protein kinase 2 (Homo sapiens) (UniProt P49137). Briefly: MAPKAPK2 Invitrogen kinase activity assay. Conditions: Compound concentration 1.0 uM.
In test [3] the target is Calcium/calmodulin-dependent protein kinase type 1 (Homo sapiens) (UniProt Q14012). Briefly: CAMK1 Invitrogen kinase activity assay. Conditions: Compound concentration 1.0 uM.
Test [4] concerns the target Serine/threonine-protein kinase pim-2 (Homo sapiens) (UniProt Q9P1W9). Description: PIM2 Invitrogen kinase activity assay. Conditions: Compound concentration 1.0 uM.
Test [5] addresses Tyrosine-protein kinase Lck (Homo sapiens) (UniProt P06239). Description: LCK Invitrogen kinase activity assay. Conditions: Compound concentration 1.0 uM.
Test [6] concerns the target Serine/threonine-protein kinase MARK1 (Homo sapiens, UniProt Q9P0L2). Description: MARK1 Invitrogen kinase activity assay.
For test [7], the target named is T2, Tyrosine-protein kinase JAK3 (Homo sapiens) (UniProt P52333).
T2 sequence (whole entry): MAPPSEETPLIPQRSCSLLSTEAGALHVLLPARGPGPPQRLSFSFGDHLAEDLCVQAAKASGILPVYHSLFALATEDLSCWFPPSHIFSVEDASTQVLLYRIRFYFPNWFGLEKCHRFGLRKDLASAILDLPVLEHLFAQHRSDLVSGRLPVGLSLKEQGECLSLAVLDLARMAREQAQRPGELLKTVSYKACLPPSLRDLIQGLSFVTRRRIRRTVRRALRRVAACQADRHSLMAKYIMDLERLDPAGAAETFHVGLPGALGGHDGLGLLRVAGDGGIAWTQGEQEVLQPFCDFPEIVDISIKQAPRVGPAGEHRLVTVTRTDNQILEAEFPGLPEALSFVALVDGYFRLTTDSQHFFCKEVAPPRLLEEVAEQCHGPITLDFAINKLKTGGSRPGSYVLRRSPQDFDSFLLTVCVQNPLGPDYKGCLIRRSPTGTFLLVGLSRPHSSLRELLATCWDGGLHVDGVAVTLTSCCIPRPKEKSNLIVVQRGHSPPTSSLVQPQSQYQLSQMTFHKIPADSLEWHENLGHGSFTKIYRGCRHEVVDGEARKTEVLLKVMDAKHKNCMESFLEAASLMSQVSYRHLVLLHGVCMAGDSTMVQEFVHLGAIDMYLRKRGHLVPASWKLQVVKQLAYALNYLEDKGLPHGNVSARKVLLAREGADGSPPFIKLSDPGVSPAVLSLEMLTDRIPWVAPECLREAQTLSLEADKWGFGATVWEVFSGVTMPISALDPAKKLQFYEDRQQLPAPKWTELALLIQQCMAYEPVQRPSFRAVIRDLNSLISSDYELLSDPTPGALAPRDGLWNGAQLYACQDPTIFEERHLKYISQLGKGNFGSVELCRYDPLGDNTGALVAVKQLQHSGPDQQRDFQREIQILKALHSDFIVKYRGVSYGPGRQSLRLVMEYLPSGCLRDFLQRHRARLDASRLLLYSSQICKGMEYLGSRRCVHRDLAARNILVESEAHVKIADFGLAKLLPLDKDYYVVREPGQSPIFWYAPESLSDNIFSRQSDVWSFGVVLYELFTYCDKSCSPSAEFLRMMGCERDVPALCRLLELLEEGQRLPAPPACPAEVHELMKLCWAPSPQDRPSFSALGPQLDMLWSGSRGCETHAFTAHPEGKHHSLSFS
Conditions: Compound concentration 1.0 uM.

The target of test [8] is CDK6/cyclin D3 (Homo sapiens) (UniProt P30281+Q00534). Description: CDK6/cyclinD3 Invitrogen kinase activity assay. The class given is protein-complex assay. Conditions: Compound concentration 1.0 uM.
Test [9] addresses RAC-alpha serine/threonine-protein kinase (Homo sapiens) (UniProt P31749). Description: AKT1 Invitrogen kinase activity assay. Conditions: Compound concentration 1.0 uM.
The target of test [10] is Tyrosine-protein kinase ABL1 (Homo sapiens, UniProt P00519). Briefly: ABL Invitrogen kinase activity assay.
Test [11] has as its target Sodium-dependent dopamine transporter (Homo sapiens) (UniProt Q01959). Conditions: Compound concentration 10.0 uM.
The target in test [12] is Glycogen synthase kinase-3 beta (Homo sapiens, UniProt P49841). Briefly: GSK3beta Invitrogen kinase activity assay.
In test [13] the target is Mitogen-activated protein kinase 1 (Homo sapiens) (UniProt P28482). Briefly: MAPK1/ERK2 Invitrogen kinase activity assay. Conditions: Compound concentration 1.0 uM.
Test [14] concerns the target T3, Serine/threonine-protein kinase Sgk1 (Homo sapiens) (UniProt O00141).
T3 sequence (whole entry): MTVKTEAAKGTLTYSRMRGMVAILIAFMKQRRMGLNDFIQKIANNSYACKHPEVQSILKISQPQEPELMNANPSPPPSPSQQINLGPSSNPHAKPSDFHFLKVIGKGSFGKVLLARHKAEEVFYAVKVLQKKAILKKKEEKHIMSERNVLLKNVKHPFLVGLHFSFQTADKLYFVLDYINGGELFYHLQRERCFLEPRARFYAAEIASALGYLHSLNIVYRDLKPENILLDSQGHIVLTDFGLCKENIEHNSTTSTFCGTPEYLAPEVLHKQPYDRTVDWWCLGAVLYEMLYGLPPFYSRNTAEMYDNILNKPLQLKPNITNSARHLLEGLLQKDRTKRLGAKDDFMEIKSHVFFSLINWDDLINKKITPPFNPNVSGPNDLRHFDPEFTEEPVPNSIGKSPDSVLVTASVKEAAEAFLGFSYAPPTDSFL
Briefly: SGK Invitrogen kinase activity assay. Conditions: Compound concentration 1.0 uM.

The target in the next test is Adenosine receptor A2a (Homo sapiens, UniProt P29274). Description: Cerep profiling assay (ADORA2A). The arrangement: compound concentration 10 uM.
Test [15] deals with Ephrin type-A receptor 2 (Homo sapiens) (UniProt P29317). Briefly: ECK Invitrogen kinase activity assay. Conditions: Compound concentration 1.0 uM.
Test [16] concerns the target Tyrosine-protein kinase BTK (Homo sapiens) (UniProt Q06187). Description: BTK Invitrogen kinase activity assay. Conditions: Compound concentration 1.0 uM.
For another test, the target named is D(1A) dopamine receptor (Homo sapiens, UniProt P21728). Conditions: Compound concentration 10.0 uM.
For test [17], the target named is Sigma intracellular receptor 2 (Homo sapiens, UniProt Q5BJF2). Description: GPCRScan assay: inhibition of Sigma 2. The arrangement: radioligand conc. used [nm] 5.0, parental cells HEKT.

Each structure is given as a SMILES string.

Sequence of Tyrosine-protein kinase ABL1 (P00519 whole entry): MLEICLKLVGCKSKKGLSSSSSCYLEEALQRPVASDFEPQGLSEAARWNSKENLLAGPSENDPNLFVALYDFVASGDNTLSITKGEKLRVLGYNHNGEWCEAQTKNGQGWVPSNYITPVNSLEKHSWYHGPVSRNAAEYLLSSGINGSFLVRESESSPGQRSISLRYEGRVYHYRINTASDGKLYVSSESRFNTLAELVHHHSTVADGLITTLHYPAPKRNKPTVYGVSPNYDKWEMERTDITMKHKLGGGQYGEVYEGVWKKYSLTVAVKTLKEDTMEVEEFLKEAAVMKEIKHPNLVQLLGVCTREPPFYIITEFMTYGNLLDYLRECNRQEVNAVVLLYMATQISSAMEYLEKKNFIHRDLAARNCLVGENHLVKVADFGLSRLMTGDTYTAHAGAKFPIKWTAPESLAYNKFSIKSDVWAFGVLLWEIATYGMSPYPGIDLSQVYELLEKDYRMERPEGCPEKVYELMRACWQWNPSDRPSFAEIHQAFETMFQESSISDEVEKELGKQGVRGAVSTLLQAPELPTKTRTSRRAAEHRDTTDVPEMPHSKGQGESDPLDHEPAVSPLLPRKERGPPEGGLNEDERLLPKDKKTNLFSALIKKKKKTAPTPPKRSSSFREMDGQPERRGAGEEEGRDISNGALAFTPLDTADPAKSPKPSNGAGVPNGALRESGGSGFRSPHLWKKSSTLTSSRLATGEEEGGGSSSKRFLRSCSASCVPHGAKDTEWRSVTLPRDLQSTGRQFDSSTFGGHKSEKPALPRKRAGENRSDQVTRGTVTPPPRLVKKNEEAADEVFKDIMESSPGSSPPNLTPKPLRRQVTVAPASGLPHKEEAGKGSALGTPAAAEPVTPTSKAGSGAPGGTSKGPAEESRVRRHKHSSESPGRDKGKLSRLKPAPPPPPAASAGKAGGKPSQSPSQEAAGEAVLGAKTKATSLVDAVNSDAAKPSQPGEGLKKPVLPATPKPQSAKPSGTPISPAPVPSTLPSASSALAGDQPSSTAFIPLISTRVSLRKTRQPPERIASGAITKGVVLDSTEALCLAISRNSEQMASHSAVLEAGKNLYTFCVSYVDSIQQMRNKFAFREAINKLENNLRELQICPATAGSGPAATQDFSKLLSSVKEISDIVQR
Sequence of Mitogen-activated protein kinase 1 (Homo sapiens) (P28482 whole entry): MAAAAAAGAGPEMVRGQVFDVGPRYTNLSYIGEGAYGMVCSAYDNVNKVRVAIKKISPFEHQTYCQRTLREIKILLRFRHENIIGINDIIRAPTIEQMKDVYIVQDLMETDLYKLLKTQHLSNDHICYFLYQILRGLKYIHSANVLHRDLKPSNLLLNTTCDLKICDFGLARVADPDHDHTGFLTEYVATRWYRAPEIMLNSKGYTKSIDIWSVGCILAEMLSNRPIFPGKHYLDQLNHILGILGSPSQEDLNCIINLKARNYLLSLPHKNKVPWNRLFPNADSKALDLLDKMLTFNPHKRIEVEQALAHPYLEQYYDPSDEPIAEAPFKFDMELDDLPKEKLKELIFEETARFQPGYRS
Sequence of Sigma intracellular receptor 2 (Q5BJF2 whole entry): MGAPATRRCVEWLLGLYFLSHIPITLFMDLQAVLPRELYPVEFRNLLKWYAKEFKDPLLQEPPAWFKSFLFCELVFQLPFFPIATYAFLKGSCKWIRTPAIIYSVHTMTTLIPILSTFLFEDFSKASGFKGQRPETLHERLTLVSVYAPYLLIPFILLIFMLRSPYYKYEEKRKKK
Sequence of Ephrin type-A receptor 2 (Homo sapiens) (P29317 whole entry): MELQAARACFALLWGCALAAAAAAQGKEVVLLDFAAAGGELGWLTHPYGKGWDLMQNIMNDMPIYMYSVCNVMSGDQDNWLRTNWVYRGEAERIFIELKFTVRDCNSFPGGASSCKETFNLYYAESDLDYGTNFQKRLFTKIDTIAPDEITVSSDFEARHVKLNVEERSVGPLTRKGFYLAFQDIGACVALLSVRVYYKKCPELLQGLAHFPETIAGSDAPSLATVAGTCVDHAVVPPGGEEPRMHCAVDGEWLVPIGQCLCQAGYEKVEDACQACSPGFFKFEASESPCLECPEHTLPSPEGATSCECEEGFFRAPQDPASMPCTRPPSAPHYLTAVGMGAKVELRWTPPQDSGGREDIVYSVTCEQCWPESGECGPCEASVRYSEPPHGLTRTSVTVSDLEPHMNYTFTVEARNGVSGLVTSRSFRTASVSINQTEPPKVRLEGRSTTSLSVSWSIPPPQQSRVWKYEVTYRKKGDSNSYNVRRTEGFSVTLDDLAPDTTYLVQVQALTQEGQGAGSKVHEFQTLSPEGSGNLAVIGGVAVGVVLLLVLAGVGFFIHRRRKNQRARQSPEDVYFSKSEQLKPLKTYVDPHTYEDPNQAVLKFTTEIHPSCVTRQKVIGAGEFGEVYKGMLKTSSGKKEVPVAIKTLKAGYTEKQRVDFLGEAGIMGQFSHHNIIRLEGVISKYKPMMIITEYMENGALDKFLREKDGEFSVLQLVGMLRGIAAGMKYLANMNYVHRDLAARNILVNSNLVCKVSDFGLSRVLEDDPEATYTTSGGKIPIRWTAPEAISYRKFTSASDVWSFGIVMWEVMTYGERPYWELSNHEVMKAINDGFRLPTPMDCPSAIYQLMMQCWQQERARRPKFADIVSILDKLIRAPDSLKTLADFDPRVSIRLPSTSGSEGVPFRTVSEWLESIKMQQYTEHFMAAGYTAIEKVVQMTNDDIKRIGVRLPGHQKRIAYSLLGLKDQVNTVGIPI
Sequence of Tyrosine-protein kinase BTK (Homo sapiens) (Q06187 whole entry): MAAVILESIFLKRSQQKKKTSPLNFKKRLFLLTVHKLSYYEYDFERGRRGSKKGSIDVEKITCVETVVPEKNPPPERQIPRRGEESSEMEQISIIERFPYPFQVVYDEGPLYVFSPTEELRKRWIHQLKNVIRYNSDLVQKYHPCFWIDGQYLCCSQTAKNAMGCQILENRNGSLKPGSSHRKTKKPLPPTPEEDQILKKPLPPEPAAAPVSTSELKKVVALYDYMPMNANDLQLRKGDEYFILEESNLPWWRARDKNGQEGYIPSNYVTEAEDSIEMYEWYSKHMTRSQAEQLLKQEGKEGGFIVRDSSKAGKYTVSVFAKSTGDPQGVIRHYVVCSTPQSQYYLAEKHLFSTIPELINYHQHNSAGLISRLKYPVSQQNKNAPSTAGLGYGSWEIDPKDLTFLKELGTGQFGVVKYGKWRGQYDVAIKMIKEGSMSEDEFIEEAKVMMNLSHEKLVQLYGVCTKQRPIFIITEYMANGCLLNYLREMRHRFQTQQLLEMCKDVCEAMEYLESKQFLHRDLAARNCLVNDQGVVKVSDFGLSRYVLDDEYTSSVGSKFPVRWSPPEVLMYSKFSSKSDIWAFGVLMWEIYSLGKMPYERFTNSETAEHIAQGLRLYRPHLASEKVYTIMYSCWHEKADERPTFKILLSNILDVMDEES
Sequence of RAC-alpha serine/threonine-protein kinase (Homo sapiens) (P31749 whole entry): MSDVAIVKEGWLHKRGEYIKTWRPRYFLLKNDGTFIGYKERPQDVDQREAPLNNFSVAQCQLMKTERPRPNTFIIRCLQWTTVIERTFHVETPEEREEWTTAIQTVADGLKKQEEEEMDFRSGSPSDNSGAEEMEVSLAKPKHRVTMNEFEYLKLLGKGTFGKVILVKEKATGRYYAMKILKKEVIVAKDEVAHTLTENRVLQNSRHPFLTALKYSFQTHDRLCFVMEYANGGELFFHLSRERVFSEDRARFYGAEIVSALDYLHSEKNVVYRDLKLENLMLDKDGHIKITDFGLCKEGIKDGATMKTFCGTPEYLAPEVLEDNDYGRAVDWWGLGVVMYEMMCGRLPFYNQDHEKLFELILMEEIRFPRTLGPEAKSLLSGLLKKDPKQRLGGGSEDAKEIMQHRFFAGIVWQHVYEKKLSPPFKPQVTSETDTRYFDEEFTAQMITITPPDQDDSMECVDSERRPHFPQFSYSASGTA
Sequence of D(1A) dopamine receptor (P21728 whole entry): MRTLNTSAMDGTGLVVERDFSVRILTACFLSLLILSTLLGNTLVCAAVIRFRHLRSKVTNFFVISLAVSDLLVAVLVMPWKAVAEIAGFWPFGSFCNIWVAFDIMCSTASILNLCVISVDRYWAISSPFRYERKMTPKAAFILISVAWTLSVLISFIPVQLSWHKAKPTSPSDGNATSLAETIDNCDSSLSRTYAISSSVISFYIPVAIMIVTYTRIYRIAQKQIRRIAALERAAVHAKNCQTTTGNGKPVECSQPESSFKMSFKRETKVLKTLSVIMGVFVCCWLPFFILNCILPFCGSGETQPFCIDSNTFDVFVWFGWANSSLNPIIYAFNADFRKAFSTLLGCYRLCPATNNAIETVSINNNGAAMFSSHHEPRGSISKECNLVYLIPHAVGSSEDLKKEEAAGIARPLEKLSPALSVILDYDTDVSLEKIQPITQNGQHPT
Sequence of Tyrosine-protein kinase Lck (Homo sapiens) (P06239 2-509 limits assumed): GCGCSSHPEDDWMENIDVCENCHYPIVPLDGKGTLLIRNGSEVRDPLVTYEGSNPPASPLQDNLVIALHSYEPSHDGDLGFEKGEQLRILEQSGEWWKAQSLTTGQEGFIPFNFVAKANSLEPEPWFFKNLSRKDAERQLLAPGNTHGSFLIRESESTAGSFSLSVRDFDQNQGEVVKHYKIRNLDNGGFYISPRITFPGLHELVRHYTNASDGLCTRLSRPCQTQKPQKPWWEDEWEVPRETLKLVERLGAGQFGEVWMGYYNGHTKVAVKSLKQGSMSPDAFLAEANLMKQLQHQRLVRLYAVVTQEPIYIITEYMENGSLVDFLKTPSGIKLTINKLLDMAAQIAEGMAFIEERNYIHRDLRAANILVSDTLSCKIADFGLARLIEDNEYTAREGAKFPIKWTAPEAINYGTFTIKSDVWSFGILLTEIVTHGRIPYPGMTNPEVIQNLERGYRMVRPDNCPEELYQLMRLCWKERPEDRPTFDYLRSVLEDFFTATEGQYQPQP

The term inhibition denotes the change of the read-out against control, counted positive when it falls. The IC50 is the point on the concentration scale where inhibition reaches its midpoint. A low value points to greater potency. The term Ki denotes a measure of affinity in units of concentration, obtained from inhibition or displacement. `CNC(=O)c1ccc(Nc2ncc(C(F)(F)F)c(NCc3nccnc3N(C)S(C)(=O)=O)n2)cc1` [DEFACTINIB]: the inhibition in [1] is 23%; in test [2] it was 2%; in test [3], 0%; in test [4] it was 0%; in test [5], 39%; in test [6] (Compound concentration 1.0 uM), 81%. For the same molecule, the inhibition is 94% in [7]; 13% in test [8]; 4% in test [9]; 34% in test [10] (Compound concentration 1.0 uM); -6.06% in test [11]; 83% in test [12] (Compound concentration 1.0 uM). Moreover, the inhibition was 35% in test [13], 30% in [14], 18% in test [15] and 14% in test [16]. The results for the IC50 in test [6], in [10] and in [12] were 448 nM, 1640 nM and 416 nM, respectively. In addition, the inhibition constant (Ki) at Adenosine receptor A2a was 370 nM (not active).

As to `CN(c1ccnc(CNc2nc(Nc3ccc4c(c3)CC(=O)N4)ncc2C(F)(F)F)n1)S(C)(=O)=O` [PF-00911705], the inhibition on D(1A) dopamine receptor was 0.76%. Besides, the inhibition constant Ki in test [17] was 2120 nM.
